Reference: article PMC4303583 (International journal of biological macromolecules, 2012)
Where two headings read alike, the source gives them in different places.

Experiments:
[1] = tested on: wild-type E. coli strain pBWU13.4/DK8; format: cell-based, Escherichia coli
[2] = biological target: T1, E. coli ATP synthase (purified F1 or membrane bound F1Fo) (Escherichia coli, UniProt P0ABA6+P0ABB0+P0ABB4); assay: biochemical; format: biochemical
[3] = biological target: T1, E. coli ATP synthase (purified F1 or membrane bound F1Fo); settings: maximal inhibition; cited from earlier work
[4] = OD595 after ~20 hours growth at 37 °C, control 100, null 45
[5] = left over ATPase activity at maximal inhibition
[6] = purified F1 or membranes, preincubated 60 min at 23°C, varied concentrations
[7] = left over ATPase activity at maximal inhibition, purified F1 or membranes

T1 sequence (P0ABA4 whole entry): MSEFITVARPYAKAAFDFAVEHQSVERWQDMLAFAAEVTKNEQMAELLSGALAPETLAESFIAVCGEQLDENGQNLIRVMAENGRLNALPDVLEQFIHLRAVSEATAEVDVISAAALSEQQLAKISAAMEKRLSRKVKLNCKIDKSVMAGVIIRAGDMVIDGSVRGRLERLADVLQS
T1 sequence (P0ABB4 2-460): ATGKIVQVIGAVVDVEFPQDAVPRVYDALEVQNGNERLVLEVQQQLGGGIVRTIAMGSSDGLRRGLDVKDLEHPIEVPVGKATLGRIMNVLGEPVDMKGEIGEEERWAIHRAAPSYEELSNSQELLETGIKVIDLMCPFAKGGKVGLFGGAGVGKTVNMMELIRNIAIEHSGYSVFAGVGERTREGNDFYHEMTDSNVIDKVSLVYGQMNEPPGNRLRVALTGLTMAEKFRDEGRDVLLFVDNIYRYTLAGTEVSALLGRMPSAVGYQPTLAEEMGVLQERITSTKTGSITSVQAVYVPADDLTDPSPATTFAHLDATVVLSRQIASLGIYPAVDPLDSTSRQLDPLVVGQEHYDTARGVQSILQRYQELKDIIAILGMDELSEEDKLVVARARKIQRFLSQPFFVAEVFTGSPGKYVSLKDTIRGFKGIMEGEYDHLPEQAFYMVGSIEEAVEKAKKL
T1 sequence (P0ABA6 whole entry): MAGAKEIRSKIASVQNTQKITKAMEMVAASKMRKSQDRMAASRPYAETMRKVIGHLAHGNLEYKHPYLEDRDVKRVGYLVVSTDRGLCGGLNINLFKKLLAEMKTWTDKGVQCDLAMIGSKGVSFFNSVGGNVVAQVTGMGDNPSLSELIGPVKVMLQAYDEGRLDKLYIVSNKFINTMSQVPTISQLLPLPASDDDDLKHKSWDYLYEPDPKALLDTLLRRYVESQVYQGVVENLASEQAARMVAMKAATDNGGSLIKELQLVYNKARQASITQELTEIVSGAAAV
T1 sequence (P0A6E6 2-139, further chain): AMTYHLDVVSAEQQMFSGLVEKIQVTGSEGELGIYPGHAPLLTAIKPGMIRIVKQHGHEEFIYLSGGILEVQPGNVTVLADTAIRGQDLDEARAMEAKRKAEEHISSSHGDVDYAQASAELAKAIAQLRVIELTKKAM
T1 sequence (P0ABB0 whole entry): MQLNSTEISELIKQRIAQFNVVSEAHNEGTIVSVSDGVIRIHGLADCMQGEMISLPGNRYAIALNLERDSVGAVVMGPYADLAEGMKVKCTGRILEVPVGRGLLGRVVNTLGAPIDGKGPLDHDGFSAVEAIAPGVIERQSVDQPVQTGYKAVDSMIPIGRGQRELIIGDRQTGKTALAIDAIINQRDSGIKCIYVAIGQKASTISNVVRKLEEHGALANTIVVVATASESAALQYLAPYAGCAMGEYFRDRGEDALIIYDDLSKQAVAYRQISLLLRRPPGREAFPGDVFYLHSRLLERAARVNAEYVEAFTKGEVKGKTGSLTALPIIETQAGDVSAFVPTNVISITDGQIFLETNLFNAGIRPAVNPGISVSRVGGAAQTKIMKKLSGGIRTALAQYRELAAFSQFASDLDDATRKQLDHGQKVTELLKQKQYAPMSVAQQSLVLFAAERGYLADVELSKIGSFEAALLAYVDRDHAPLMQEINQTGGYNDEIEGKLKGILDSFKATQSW

1,8,9-Anthracentriol [PC17]
Growth yield in limiting glucose (%) [1, 4]: 69% | Residual ATPase Activity (%) [2, 5]: 70% | maximum amount of inhibition of ATPase activity [2, 6]: ~ 30%

Cc1cc(O)c(C(C)C)cc1O [PC01, Dihydrothymoquinone]
Growth yield in limiting glucose (%) [1, 4]: 66% | Residual ATPase Activity (%) [2, 5]: 60% | residual activity [2, 7]: ~ 60% | maximum amount of inhibition of ATPase activity [2, 6]: ~ 40%

Oc1ccc(O)cc1 [PC02, Hydroquinone]
Growth yield in limiting glucose (%) [1]: 55% | IC50 [2]: ~20 µM | Residual ATPase Activity (%) [2]: 20% | maximum amount of inhibition of ATPase activity [2]: ~ 80%

Oc1cccc(O)c1 [PC03, Resorcinol]
Growth yield in limiting glucose (%) [1, 4]: 79% | Residual ATPase Activity (%) [2, 5]: 80% | residual activity [2, 7]: ~ 80% | maximum amount of inhibition of ATPase activity [2, 6]: ~ 20%

Oc1ccccc1O [PC04, Catechol]
Growth yield in limiting glucose (%) [1, 4]: 57% | Residual ATPase Activity (%) [2, 5]: 60% | residual activity [2, 7]: ~ 60% | maximum amount of inhibition of ATPase activity [2, 6]: ~ 40%

Oc1ccc(N=Cc2ccccc2O)cc1 [PC05, 2-[[(4-hydroxyphenyl)Imino]methyl]phenol]
Growth yield in limiting glucose (%) [1, 4]: 42% | IC50 [2]: ~5 µM | Residual ATPase Activity (%) [2, 5]: 0%

Oc1cccc(N=Cc2ccccc2O)c1 [PC06, 2-[[(3-Hydroxyphenyl)imino]methyl]phenol]
Growth yield in limiting glucose (%) [1, 4]: 51% | IC50 [2]: ~5.25 µM | Residual ATPase Activity (%) [2, 5]: 15%

Oc1cccc(C=Nc2ccccc2O)c1 [PC07, 3-[[(2-Hydroxyphenyl)imino]methyl]phenol]
IC50 [2]: ~9 µM | Residual ATPase Activity (%) [2, 5]: 15%

Oc1ccc(C=Nc2cccc(O)c2)cc1 [PC08, 4-[[(3-Hydroxyphenyl)imino]methyl]phenol]
IC50 [2]: ~9 µM | Residual ATPase Activity (%) [2, 5]: 0%

Oc1ccccc1C=Nc1ccccc1O [PC09, 2-[[(2-Hydroxyphenyl)imino]methyl]phenol]
IC50 [2]: ~7 µM | Residual ATPase Activity (%) [2, 5]: 5%

Oc1cccc(C=Nc2cccc(O)c2)c1 [PC10, 3-[[(3-Hydroxyphenyl)imino]methyl]phenol]
IC50 [2]: ~2.25 µM | Residual ATPase Activity (%) [2, 5]: 0%

Oc1ccc(C=Nc2ccc(O)cc2)cc1 [PC11, 4-[[(4-Hydroxyphenyl)imino]methyl]phenol]
Residual ATPase Activity (%) [2, 5]: 80% | residual activity [2, 7]: ~ 80%

O=[N+]([O-])c1cc(O)ccc1N=Cc1ccccc1O [PC12, 2-[[(4-Hydroxy-2-nitrophenyl)imino]methyl]phenol]
IC50 [2]: ~6 µM | Residual ATPase Activity (%) [2, 5]: 0%

O=[N+]([O-])c1ccc(N=Cc2ccccc2O)c(O)c1 [PC13, 2-[[(2-Hydroxy-4-nitrophenyl)imino]methyl]phenol]
IC50 [2]: ~5 µM | Residual ATPase Activity (%) [2, 5]: 0%

O=[N+]([O-])c1ccc(OP(=O)(Oc2ccc([N+](=O)[O-])cc2)Oc2ccc([N+](=O)[O-])cc2)cc1 [PC14, Tris(4-nitrophenyl)phosphate]
Growth yield in limiting glucose (%) [1, 4]: 57% | Residual ATPase Activity (%) [2, 5]: 55% | residual activity [2, 7]: ~ 55% | maximum amount of inhibition of ATPase activity [2, 6]: ~ 45%

O=[N+]([O-])c1ccc(OP(=O)(O)Oc2ccc([N+](=O)[O-])cc2)cc1 [PC15, Bis(4-nitrophenyl)phosphate]
Growth yield in limiting glucose (%) [1, 4]: 63% | Residual ATPase Activity (%) [2, 5]: 60% | maximum amount of inhibition of ATPase activity [2, 6]: ~ 40%

O=C1c2cccc(O)c2C(=O)c2c(O)cccc21 [PC16, 1,8-Dihydroxy-9,10-anthraquinone]
Growth yield in limiting glucose (%) [1, 4]: 80% | Residual ATPase Activity (%) [2, 5]: 78% | residual activity [2, 7]: ~ 78% | maximum amount of inhibition of ATPase activity [2, 6]: ~ 22%

Oc1ccc(/C=C/c2cc(O)cc(O)c2)cc1 [resveratrol]
inhibition of E. coli ATP synthase [3]: ~ 40%
